The subject of the series is RHE cultures (ZenSkin). Put plainly: RHE irritancy test (MTT viability of RHE cultures). Type of series: cell-based. Particulars: 30 μL applied for 1 hour, MTT after 42 hours, relative to negative control (water), n=3.

Experimental: RHE cultures (ZenSkin®) (surface area=0.33 cm^2) were equilibrated overnight in a humidified incubator at 37° C. and 5% CO2. The next day RHE were removed from the incubator and inspected for residual liquid on the apical surface. Excess moisture was removed with sterile cotton swab and 30 μL of a topical pharmaceutical composition was applied to triplicate cultures (n=3). Sterile water served as a negative control and 1% Triton X-100 served as positive control. Once treated, RHE cultures were returned to the incubator for 1 hour and then gently washed to remove test substance. The washed inserts were then transferred to new 12 well plates prefilled with fresh 0.5 mL media. […]
After 42-hour incubation, the tissue cultures were transferred to a new plate containing fresh MTT substrate in tissue media and placed in the incubator at 37° C. and 5% CO2 for 2 hours. […] Optical density was measured at 570 nm without using a reference filter. […]
Percent cell viability was calculated as follows: 100×[OD(sample)/OD(neg control)]. […] The test formulations were classified as irritant or non-irritant based on EU and GHS classification, according to which an irritant (R38/Category 2) is determined if the mean relative tissue viability of tissues exposed to test material is reduced below 50% of the negative control.

On to triton X-100, for which the Mean percent viability is less than 20%.

The values are drawn from US20230149398A1, “TOPICAL PHARMACEUTICAL COMPOSITIONS COMPRISING IMIDAZO[1,2-B]PYRIDAZINE COMPOUNDS” (BenevolentAI Bio Limited, priority 2020, published 2023).
